Data taken from PubChem BioAssay (NCI).
“And” between values parts separate entries of the source, which are not always exact repeats. Identical values can stand only once.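 Briefly, cells in 96-well plates were exposed to five compound concentrations for 48 h, and endpoints were estimated by linear interpolation. Abbreviation: GI50, concentration required for 50% inhibition of growth. The concentration for full growth arrest is given as TGI.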

Key:
Experiment in all cases: DTP human tumour cell line panel, 48 h
ACHN renal = test system: ACHN renal
HOP-92 NSCLC = test system: HOP-92 NSCLC
KM12 colon = test system: KM12 colon
TK-10 renal = test system: TK-10 renal
SF-268 CNS = test system: SF-268 CNS
OVCAR-4 ovarian = test system: OVCAR-4 ovarian
IGROV1 ovarian = test system: IGROV1 ovarian
COLO 205 colon = test system: COLO 205 colon
LOX IMVI melanoma = test system: LOX IMVI melanoma
HL-60(TB) leukemia = test system: HL-60(TB) leukemia

SMILES	TGI (ACHN renal)	TGI (HOP-92 NSCLC)	TGI (KM12 colon)	TGI (TK-10 renal)	TGI (SF-268 CNS)	TGI (OVCAR-4 ovarian)	TGI (IGROV1 ovarian)	TGI (COLO 205 colon)	TGI (LOX IMVI melanoma)	TGI (HL-60(TB) leukemia)	GI50 (ACHN renal) [µM]	GI50 (HOP-92 NSCLC) [µM]	GI50 (HL-60(TB) leukemia) [µM]	GI50 (KM12 colon) [µM]	GI50 (TK-10 renal) [µM]	GI50 (SF-268 CNS) [µM]	GI50 (IGROV1 ovarian) [µM]	GI50 (COLO 205 colon) [µM]	GI50 (LOX IMVI melanoma) [µM]	GI50 (OVCAR-4 ovarian) [µM]
Nc1ccc(N(S(=O)(=O)c2ccccc2)S(=O)(=O)c2ccccc2)c(Cl)c1	> 100 µM	> 100 µM	> 100 µM	> 100 µM	> 100 µM	> 100 µM	> 100 µM	> 100 µM	> 100 µM											
COc1cc(/C=C(\C#N)C(=O)c2ccccc2)ccc1OCc1ccccc1	> 100 µM		> 100 µM	> 100 µM		> 100 µM	> 100 µM	> 100 µM	> 100 µM	> 100 µM										
CN1CCN(CCCN)CC1	> 100 µM		> 100 µM	> 100 µM	> 100 µM	> 100 µM	> 100 µM	> 100 µM	> 100 µM	> 100 µM										
CC(O)c1cccc(NCc2c3ccccc3c(=O)n3c2oc2ccccc23)c1 (centres undefined)	13.5 µM	44.3 µM	> 100 µM	28 µM	> 100 µM		27 µM	> 100 µM	36 µM	> 100 µM	3.51	5.4	> 100	13.4	5.7	> 100	1.32	> 100	8.02	
O=Cc1ccc(-c2cc(C=O)c(-c3cccs3)[nH]2)s1	75 µM and > 100 µM	75 µM and > 100 µM	75 µM and > 100 µM	75 µM and > 100 µM	> 100 µM	75 µM and > 100 µM	75 µM and > 100 µM	75 µM and 88.6 µM	75 µM and > 100 µM		78.6	> 100		50.8	85	> 100	30.8		> 100	12
Cc1c(NC(=O)C(C)(C)Br)c(=O)oc2c(C)c3occc(=O)c3cc12	> 100 µM			> 100 µM	> 100 µM	> 100 µM	> 100 µM	> 100 µM	> 100 µM	> 100 µM										
CC12OC(c3ccccc3)=CC(c3ccc(Cl)cc3)=C1C(c1ccccc1)=CC2=O (centres undefined)	> 100 µM		> 100 µM	> 100 µM	> 100 µM	> 100 µM	> 100 µM	> 100 µM	> 100 µM	77.7 µM	55.4		23.2	71.8	> 100	> 100	> 100	64.9	46	19
Nc1c(C(=O)c2ccc(Cl)cc2)sc(Nc2ccccc2)c1-c1nc2ccccc2s1	> 100 µM	4.7 µM	> 100 µM	> 21.4 µM	> 100 µM		> 100 µM		> 100 µM	> 100 µM	1.61	0.777	> 57.3	0.812	2.13	1.44	1.42		3.25	
COc1cc(OC)c(/C=C/S(=O)(=O)Cc2cnc(OC)c(N)c2)c(OC)c1	> 100 µM		> 100 µM	> 100 µM	> 100 µM	> 100 µM	> 100 µM	< 0.0322 µM	> 100 µM		< 0.0233		< 0.0167	< 0.0157	> 100	< 0.0328	< 0.0297	< 0.0169	< 0.0233	< 0.0456
CC1C[C@@]2(c3ccccc3)C(=O)CCC[C@H]2N1 (some centres undefined)	> 100 µM	> 100 µM	> 100 µM	> 100 µM	> 100 µM	> 100 µM	> 100 µM			> 100 µM										
O=C1OC(CC(=O)c2ccc(Cl)c(Cl)c2)C(Cl)=C1Cl (centres undefined)	> 100 µM		> 100 µM	> 100 µM	> 100 µM	> 100 µM	> 100 µM	> 100 µM	> 100 µM	> 100 µM										
Cc1c[nH]c2c(O)cc3c(c12)[C@H](CCl)CN3C(=O)c1cc2cc(NC(=O)Nc3ccc4[nH]c(C(=O)N5C[C@@H](CCl)c6c5cc(O)c5[nH]cc(C)c65)cc4c3)ccc2[nH]1		> 100 µM and 0.00813 µg/mL	15 nM and 28.1 µM and 3e-06 µg/mL		58.9 nM and 82.3 µM and 0.00887 µg/mL	48 µM	44 µM				8.41e-05						0.0255	0.0137	0.00117	
C=CCC(N[C@H](CO)c1ccccc1)c1ccc2ccccc2n1 (some centres undefined)	> 100 µM		> 100 µM	> 100 µM		> 100 µM	> 100 µM	> 100 µM	> 100 µM	> 100 µM	> 100		48.7	> 100	> 100		45.9	> 100	> 100	> 100
NC(=O)C(=Cc1ccc(C(O)P(=O)(O)O)cc1)C(N)=O (centres undefined)	> 100 µM	> 100 µM	> 100 µM	> 100 µM		> 100 µM	> 100 µM	> 100 µM	> 100 µM											
COc1ccccc1N1C(=O)/C(=C/c2ccc(N(CCC#N)CCC#N)cc2C)N=C1c1cc([N+](=O)[O-])ccc1Cl	> 100 µM		> 100 µM	> 100 µM	> 100 µM	71.7 µM	> 100 µM	> 100 µM		> 100 µM										
Cn1ccnc1CC(C)(O)c1ccccc1 (centres undefined)	> 100 µM	> 100 µM	> 100 µM	> 100 µM	> 100 µM	> 100 µM	> 100 µM	> 100 µM	> 100 µM											
COc1ccc([N+]2=NC(c3ccc([N+](=O)[O-])cc3)=NN(c3ccccc3)C2)cc1	> 100 µM		> 100 µM	> 100 µM	> 100 µM	75.5 µM and > 100 µM	> 100 µM	> 100 µM	> 100 µM	83.2 µM and 69.3 µM										
CC(C)CS(=O)(=O)/C(=C(\c1ccc(Br)cc1)S(=O)(=O)CC(C)C)c1ccc(Br)cc1	> 100 µM	> 100 µM	> 100 µM	> 100 µM	> 100 µM	> 100 µM	40.9 µM	> 100 µM	> 100 µM											
NOCC(=O)O	> 100 µM		> 100 µM	> 100 µM	> 100 µM	> 100 µM	> 100 µM	> 100 µM	> 100 µM	> 100 µM	> 100		32.2	> 100	> 100	> 100	> 100	> 100	> 100	> 100
CCC1(CC)C(=O)OC(=O)C1(CC)CC	> 100 µM		> 100 µM	> 100 µM	> 100 µM	> 100 µM	> 100 µM	> 100 µM	> 100 µM	> 100 µM										
O=C(/C=C/c1ccc(F)cc1)c1ccc(Cl)cc1Cl	> 100 µM	80.8 µM	> 100 µM	> 100 µM	> 100 µM	> 100 µM	> 100 µM	> 100 µM	> 100 µM		> 100	30		38.1	86.8	74.5	> 100	44.2	41.1	82.9
O=c1c2c(nc3n1CCS3)[nH]c1ccccc12	> 100 µM	> 100 µM	> 100 µM	> 100 µM	> 100 µM	> 100 µM	> 100 µM	> 100 µM	> 100 µM		> 100	> 100		> 100	> 100	> 100	17.8	> 100	59.5	> 100
CCOC(=O)NC(=O)c1cn(CC(=O)NCC(=O)NCC(=O)NCCCN2CCN(CCCNC(=O)CNC(=O)CNC(=O)Cn3cc(C(=O)NC(=O)OCC)c(=O)[nH]c3=O)CC2)c(=O)[nH]c1=O	> 100 µM	> 100 µM	> 100 µM	> 100 µM	> 100 µM		> 100 µM	> 100 µM	> 100 µM	> 100 µM										
COc1ccc(-c2onc(-c3ccc([N+](=O)[O-])cc3)c2C2=NCCN2)cc1	> 100 µM		> 100 µM		> 100 µM	> 100 µM	> 100 µM	> 100 µM	> 100 µM	> 100 µM										
COc1cc2c(cc1OCCCOc1cc3c(cc1OC)C(=O)N1C[C@H](F)C[C@H]1C=N3)N=C[C@@H]1C[C@@H](F)CN1C2=O	31.8 µM	18 µM	26.7 µM	28.2 µM	6.01 µM	31.7 µM	5.88 µM	27.4 µM	10.5 µM		10.5	5.18		12.7	15	2.26	1.89	14.4	2.41	16.2
CC(C)(C#N)c1cc(Cn2cncn2)cc(C(C)(C)C#N)c1		2980 µM	> 10000 µM	> 10000 µM	> 10000 µM	> 10000 µM	> 10000 µM	> 10000 µM	> 10000 µM			297		> 10000	564	> 10000	1760	2070	> 10000	> 10000
